Results taken from patent EP4635500A1, “THERAPEUTIC AGENT FOR BACTERIAL INFECTION” (Sumitomo Pharma Co., Ltd., priority 2022, dated 2024).
Values after ≈ are worked out from the molar mass of the structure shown. Where two headings read alike, the source gives them in different places.

Columns and labels:
53 CRE and CPE strains = experiment: MICrange, MIC50, MIC80, MIC90 for 53 bacterial isolates (Example 5, Table 5); type: cell-based; settings: 53 bacterial isolates
P. aeruginosa = experiment: MIC, broth microdilution, CDC/FDA Antibiotic Resistance Isolate Bank (Example 7, Tables 10, 15); type: cell-based; settings: for MIC: Pseudomonas aeruginosa, read-out: MIC
[1] = 26 metallo-carbapenemase-producing P. aeruginosa strains, β-lactamase inhibitor µg/mL in parentheses
[2] = 96 strains of P. aeruginosa, β-lactamase inhibitor µg/mL in parentheses

Compound `CO/N=C(\C(=O)N[C@@H]1C(=O)N2C(C(=O)[O-])=C(C[n+]3ccn4ncccc43)CS[C@H]12)c1nsc(N)n1` [Cefozopran, cefozopran] has an MIC50 (53 CRE and CPE strains; read-out: MIC50) of 32 µg/mL (≈ 62.1 µM), an MIC80 (53 CRE and CPE strains; read-out: MIC80) greater than 64 µg/mL and an MIC90 (53 CRE and CPE strains; read-out: MIC90) greater than 64 µg/mL. For the same compound, the “MIC against 26 metallo-carbapenemase-producing strains MIC50” value (P. aeruginosa; [1]) was >64 µg(mL), the “MIC against 26 metallo-carbapenemase-producing strains MIC90” value (P. aeruginosa; [1]) was >64 µg(mL) and the “MIC against 26 metallo-carbapenemase-producing strains MICrange” value (P. aeruginosa; [1]) was >64 µg(mL). The “MIC against 96 strains of P. aeruginosa MIC50” value (P. aeruginosa; [2]) was 32 µg(mL), the “MIC against 96 strains of P. aeruginosa MIC90” value (P. aeruginosa; [2]) was >64 µg(mL) and the MIC (P. aeruginosa; P. aeruginosa KUB No. 579, AR Bank # 447) was 0.5 µg/mL (≈ 0.97 µM). The MIC (P. aeruginosa; P. aeruginosa KUB No. 5083, AR Bank # 250) was greater than 64 µg/mL, the MIC (P. aeruginosa; P. aeruginosa KUB No. 5551, AR Bank # 54) was greater than 64 µg/mL and the MIC (P. aeruginosa; P. aeruginosa KUB No. 5561, AR Bank # 64) was greater than 64 µg/mL. For the same compound, the MIC (P. aeruginosa; P. aeruginosa KUB No. 5587, AR Bank # 90) was greater than 64 µg/mL, the MIC (P. aeruginosa; P. aeruginosa KUB No. 5589, AR Bank # 92) was greater than 64 µg/mL and the MIC (P. aeruginosa; P. aeruginosa KUB No. 5591, AR Bank # 94) was 64 µg/mL (≈ 124 µM). It also gave an MIC (P. aeruginosa; P. aeruginosa KUB No. 5592, AR Bank # 95) of 1 µg/mL (≈ 1.94 µM), an MIC (P. aeruginosa; P. aeruginosa KUB No. 5597, AR Bank # 100) greater than 64 µg/mL and an MIC (P. aeruginosa; P. aeruginosa KUB No. 5600, AR Bank # 103) greater than 64 µg/mL. The MIC (P. aeruginosa; P. aeruginosa KUB No. 5602, AR Bank # 105) was 16 µg/mL (≈ 31 µM), the MIC (P. aeruginosa; P. aeruginosa KUB No. 5605, AR Bank # 108) was greater than 64 µg/mL and the MIC (P. aeruginosa; P. aeruginosa KUB No. 5607, AR Bank # 110) was greater than 64 µg/mL. For the same compound, the MIC (P. aeruginosa; P. aeruginosa KUB No. 5608, AR Bank # 111) was greater than 64 µg/mL, the MIC (P. aeruginosa; P. aeruginosa KUB No. 5662, AR Bank # 229) was 16 µg/mL (≈ 31 µM) and the MIC (P. aeruginosa; P. aeruginosa KUB No. 5663, AR Bank # 230) was greater than 64 µg/mL. It also gave an MIC (P. aeruginosa; P. aeruginosa KUB No. 5664, AR Bank # 231) greater than 64 µg/mL, an MIC (P. aeruginosa; P. aeruginosa KUB No. 5665, AR Bank # 232) of 4 µg/mL (≈ 7.76 µM) and an MIC (P. aeruginosa; P. aeruginosa KUB No. 5666, AR Bank # 23) of 2 µg/mL (≈ 3.88 µM). It also gave an MIC (P. aeruginosa; P. aeruginosa KUB No. 5667, AR Bank # 234) of 2 µg/mL (≈ 3.88 µM), an MIC (P. aeruginosa; P. aeruginosa KUB No. 5668, AR Bank # 235) greater than 64 µg/mL and an MIC (P. aeruginosa; P. aeruginosa KUB No. 5669, AR Bank # 236) of 4 µg/mL (≈ 7.76 µM). For the same compound, the MIC (P. aeruginosa; P. aeruginosa KUB No. 5670, AR Bank # 237) was 0.5 µg/mL (≈ 0.97 µM), the MIC (P. aeruginosa; P. aeruginosa KUB No. 5671, AR Bank # 238) was 1 µg/mL (≈ 1.94 µM) and the MIC (P. aeruginosa; P. aeruginosa KUB No. 5672, AR Bank # 239) was greater than 64 µg/mL. It also gave an MIC (P. aeruginosa; P. aeruginosa KUB No. 5673, AR Bank # 240) greater than 64 µg/mL, an MIC (P. aeruginosa; P. aeruginosa KUB No. 5674, AR Bank # 241) greater than 64 µg/mL and an MIC (P. aeruginosa; P. aeruginosa KUB No. 5675, AR Bank # 242) greater than 64 µg/mL. For the same compound, the MIC (P. aeruginosa; P. aeruginosa KUB No. 5676, AR Bank # 243) was greater than 64 µg/mL, the MIC (P. aeruginosa; P. aeruginosa KUB No. 5677, AR Bank # 244) was 8 µg/mL (≈ 15.5 µM) and the MIC (P. aeruginosa; P. aeruginosa KUB No. 5678, AR Bank # 245) was greater than 64 µg/mL. The MIC (P. aeruginosa; P. aeruginosa KUB No. 5679, AR Bank # 246) was greater than 64 µg/mL, the MIC (P. aeruginosa; P. aeruginosa KUB No. 5680, AR Bank # 247) was 4 µg/mL (≈ 7.76 µM) and the MIC (P. aeruginosa; P. aeruginosa KUB No. 5681, AR Bank # 248) was greater than 64 µg/mL. The MIC (P. aeruginosa; P. aeruginosa KUB No. 5682, AR Bank # 249) was greater than 64 µg/mL, the MIC (P. aeruginosa; P. aeruginosa KUB No. 5684, AR Bank # 251) was 8 µg/mL (≈ 15.5 µM) and the MIC (P. aeruginosa; P. aeruginosa KUB No. 5685, AR Bank # 252) was 16 µg/mL (≈ 31 µM). For the same compound, the MIC (P. aeruginosa; P. aeruginosa KUB No. 5686, AR Bank # 253) was 4 µg/mL (≈ 7.76 µM), the MIC (P. aeruginosa; P. aeruginosa KUB No. 5687, AR Bank # 254) was greater than 64 µg/mL and the MIC (P. aeruginosa; P. aeruginosa KUB No. 5688, AR Bank # 255) was greater than 64 µg/mL. It also gave an MIC (P. aeruginosa; P. aeruginosa KUB No. 5689, AR Bank # 256) of 0.5 µg/mL (≈ 0.97 µM), an MIC (P. aeruginosa; P. aeruginosa KUB No. 5690, AR Bank # 257) of 8 µg/mL (≈ 15.5 µM) and an MIC (P. aeruginosa; P. aeruginosa KUB No. 5691, AR Bank # 258) of 1 µg/mL (≈ 1.94 µM). The MIC (P. aeruginosa; P. aeruginosa KUB No. 5692, AR Bank # 259) was 1 µg/mL (≈ 1.94 µM), the MIC (P. aeruginosa; P. aeruginosa KUB No. 5693, AR Bank # 260) was 4 µg/mL (≈ 7.76 µM) and the MIC (P. aeruginosa; P. aeruginosa KUB No. 5694, AR Bank # 261) was 4 µg/mL (≈ 7.76 µM). The MIC (P. aeruginosa; P. aeruginosa KUB No. 5695, AR Bank # 262) was 2 µg/mL (≈ 3.88 µM), the MIC (P. aeruginosa; P. aeruginosa KUB No. 5696, AR Bank # 263) was 2 µg/mL (≈ 3.88 µM) and the MIC (P. aeruginosa; P. aeruginosa KUB No. 5697, AR Bank # 264) was 0.5 µg/mL (≈ 0.97 µM). The MIC (P. aeruginosa; P. aeruginosa KUB No. 5698, AR Bank # 265) was 8 µg/mL (≈ 15.5 µM), the MIC (P. aeruginosa; P. aeruginosa KUB No. 5699, AR Bank # 266) was 8 µg/mL (≈ 15.5 µM) and the MIC (P. aeruginosa; P. aeruginosa KUB No. 5700, AR Bank # 267) was 4 µg/mL (≈ 7.76 µM). For the same compound, the MIC (P. aeruginosa; P. aeruginosa KUB No. 5701, AR Bank # 268) was 32 µg/mL (≈ 62.1 µM), the MIC (P. aeruginosa; P. aeruginosa KUB No. 5702, AR Bank # 269) was 1 µg/mL (≈ 1.94 µM) and the MIC (P. aeruginosa; P. aeruginosa KUB No. 5703, AR Bank # 270) was 4 µg/mL (≈ 7.76 µM). For the same compound, the MIC (P. aeruginosa; P. aeruginosa KUB No. 5704, AR Bank # 271) was 1 µg/mL (≈ 1.94 µM), the MIC (P. aeruginosa; P. aeruginosa KUB No. 5705, AR Bank # 272) was 0.5 µg/mL (≈ 0.97 µM) and the MIC (P. aeruginosa; P. aeruginosa KUB No. 5747, AR Bank # 351) was greater than 64 µg/mL. It also gave an MIC (P. aeruginosa; P. aeruginosa KUB No. 5748, AR Bank # 352) greater than 64 µg/mL, an MIC (P. aeruginosa; P. aeruginosa KUB No. 5749, AR Bank # 353) greater than 64 µg/mL and an MIC (P. aeruginosa; P. aeruginosa KUB No. 5750, AR Bank # 354) of 8 µg/mL (≈ 15.5 µM). For the same compound, the MIC (P. aeruginosa; P. aeruginosa KUB No. 5751, AR Bank # 355) was 16 µg/mL (≈ 31 µM), the MIC (P. aeruginosa; P. aeruginosa KUB No. 5752, AR Bank # 356) was greater than 64 µg/mL and the MIC (P. aeruginosa; P. aeruginosa KUB No. 5753, AR Bank # 357) was greater than 64 µg/mL. The MIC (P. aeruginosa; P. aeruginosa KUB No. 5754, AR Bank # 358) was 16 µg/mL (≈ 31 µM), the MIC (P. aeruginosa; P. aeruginosa KUB No. 5755, AR Bank # 359) was 16 µg/mL (≈ 31 µM) and the MIC (P. aeruginosa; P. aeruginosa KUB No. 5756, AR Bank # 360) was 8 µg/mL (≈ 15.5 µM). It also gave an MIC (P. aeruginosa; P. aeruginosa KUB No. 5785, AR Bank # 439) greater than 64 µg/mL, an MIC (P. aeruginosa; P. aeruginosa KUB No. 5786, AR Bank # 440) of 32 µg/mL (≈ 62.1 µM) and an MIC (P. aeruginosa; P. aeruginosa KUB No. 5787, AR Bank # 441) greater than 64 µg/mL. The MIC (P. aeruginosa; P. aeruginosa KUB No. 5788, AR Bank # 443) was greater than 64 µg/mL, the MIC (P. aeruginosa; P. aeruginosa KUB No. 5789, AR Bank # 444) was greater than 64 µg/mL and the MIC (P. aeruginosa; P. aeruginosa KUB No. 5790, AR Bank # 445) was 32 µg/mL (≈ 62.1 µM). For the same compound, the MIC (P. aeruginosa; P. aeruginosa KUB No. 5793, AR Bank # 449) was greater than 64 µg/mL, the MIC (P. aeruginosa; P. aeruginosa KUB No. 5798, AR Bank # 455) was 32 µg/mL (≈ 62.1 µM) and the MIC (P. aeruginosa; P. aeruginosa KUB No. 5799, AR Bank # 456) was 32 µg/mL (≈ 62.1 µM). For the same compound, the MIC (P. aeruginosa; P. aeruginosa KUB No. 5800, AR Bank # 457) was greater than 64 µg/mL, the MIC (P. aeruginosa; P. aeruginosa KUB No. 5801, AR Bank # 458) was 64 µg/mL (≈ 124 µM) and the MIC (P. aeruginosa; P. aeruginosa KUB No. 5802, AR Bank # 459) was 32 µg/mL (≈ 62.1 µM). The MIC (P. aeruginosa; P. aeruginosa KUB No. 5804, AR Bank # 862) was 32 µg/mL (≈ 62.1 µM), the MIC (P. aeruginosa; P. aeruginosa KUB No. 5805, AR Bank # 863) was greater than 64 µg/mL and the MIC (P. aeruginosa; P. aeruginosa KUB No. 5806, AR Bank # 864) was 64 µg/mL (≈ 124 µM). For the same compound, the MIC (P. aeruginosa; P. aeruginosa KUB No. 5813, AR Bank # 508) was greater than 0.064 µg/mL, the MIC (P. aeruginosa; P. aeruginosa KUB No. 5814, AR Bank # 509) was greater than 0.064 µg/mL and the MIC (P. aeruginosa; P. aeruginosa KUB No. 5815, AR Bank # 510) was 0.004 µg/mL (≈ 0.00776 µM). It also gave an MIC (P. aeruginosa; P. aeruginosa KUB No. 5816, AR Bank # 511) of 0.0005 µg/mL (≈ 0.00097 µM), an MIC (P. aeruginosa; P. aeruginosa KUB No. 5817, AR Bank # 512) of 0.002 µg/mL (≈ 0.00388 µM) and an MIC (P. aeruginosa; P. aeruginosa KUB No. 5818, AR Bank # 513) of 0.016 µg/mL (≈ 0.031 µM). It also gave an MIC (P. aeruginosa; P. aeruginosa KUB No. 5819, AR Bank # 514) of 0.0005 µg/mL (≈ 0.00097 µM), an MIC (P. aeruginosa; P. aeruginosa KUB No. 5820, AR Bank # 515) of 0.064 µg/mL (≈ 0.124 µM) and an MIC (P. aeruginosa; P. aeruginosa KUB No. 5821, AR Bank # 516) greater than 0.064 µg/mL. It also gave an MIC (P. aeruginosa; P. aeruginosa KUB No. 5823, AR Bank # 518) greater than 0.064 µg/mL, an MIC (P. aeruginosa; P. aeruginosa KUB No. 5831, AR Bank # 526) of 0.008 µg/mL (≈ 0.0155 µM) and an MIC (P. aeruginosa; P. aeruginosa KUB No. 5832, AR Bank # 527) of 0.008 µg/mL (≈ 0.0155 µM). The MIC (P. aeruginosa; P. aeruginosa KUB No. 5833, AR Bank # 528) was 0.032 µg/mL (≈ 0.0621 µM) and the MIC (P. aeruginosa; P. aeruginosa KUB No. 5834, AR Bank # 529) was 0.008 µg/mL (≈ 0.0155 µM).
